In patent publication US8859571B2, “Quinazoline compounds” (GlaxoSmithKline LLC, priority 2009, dated 2014):
“And” between values parts separate entries of the source, which are not always exact repeats. Equal values may be shown once. Where a name gives a salt, the structure may show the parent alone.

Biological target: T1, Full length human TNNI3K (hTNNI3K) (Homo sapiens, UniProt Q59H18)
T1 construct: His-MBP-TEV-Full length human TNNI3K (hTNNI3K); His (N); MBP (N); TEV cleavage site (N); made in house; host or cells: baculovirus system (printed 'Baculokinase system')
T1 sequence (Q59H18 1-835): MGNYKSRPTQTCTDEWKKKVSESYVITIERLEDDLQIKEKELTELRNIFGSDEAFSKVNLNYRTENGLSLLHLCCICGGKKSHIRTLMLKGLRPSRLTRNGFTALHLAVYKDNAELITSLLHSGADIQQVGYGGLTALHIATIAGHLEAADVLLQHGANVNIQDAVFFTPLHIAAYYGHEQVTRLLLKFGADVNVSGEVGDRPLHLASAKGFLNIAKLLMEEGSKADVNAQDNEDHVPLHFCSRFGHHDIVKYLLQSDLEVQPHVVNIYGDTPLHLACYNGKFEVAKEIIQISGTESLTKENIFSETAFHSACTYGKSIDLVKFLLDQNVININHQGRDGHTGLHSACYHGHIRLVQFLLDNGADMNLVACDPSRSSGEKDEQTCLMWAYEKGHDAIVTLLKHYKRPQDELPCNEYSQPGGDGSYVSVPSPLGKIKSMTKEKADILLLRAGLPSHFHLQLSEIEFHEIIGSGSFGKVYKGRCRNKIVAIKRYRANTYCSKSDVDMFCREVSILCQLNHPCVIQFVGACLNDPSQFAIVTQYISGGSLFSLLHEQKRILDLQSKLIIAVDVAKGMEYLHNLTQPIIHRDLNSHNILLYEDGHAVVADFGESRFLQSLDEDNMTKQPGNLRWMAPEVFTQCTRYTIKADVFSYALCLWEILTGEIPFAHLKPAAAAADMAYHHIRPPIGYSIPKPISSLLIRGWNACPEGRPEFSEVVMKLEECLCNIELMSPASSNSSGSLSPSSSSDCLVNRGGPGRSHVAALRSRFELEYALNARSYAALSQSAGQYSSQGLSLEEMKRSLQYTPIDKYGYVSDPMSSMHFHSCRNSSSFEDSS
Assay: Fluorescent polarization assay of compound inhibition on hTNNI3K ATP binding (Biological Assay Method I)
Details: displacement of fluorescent ligand from hTNNI3K ATP binding pocket; mean of a minimum of 2 experiments; read-out: pXC50 (the source's name) (converted)
From the text: Materials: His-MBP-TEV-Full length human TNNI3K (hTNNI3K) was expressed in Baculokinase system and purified from amylase affinity column followed by Superdex200. The fluorescent ligand 5-({[2-({[3-({4-[(5-hydroxy-2-methylphenyl)amino]-2-pyrimidinyl}amino)phenyl]carbonyl}amino)ethyl]amino}carbonyl)-2-(6-hydroxy-3-oxo-3H-xanthen-9-yl)benzoic acid was used. The preparation of this fluorescent ligand is disclosed in U.S. Provisional Patent Application No. 61/237,815 filed Aug. 28, 2009, the disclosure of which is incorporated by reference herein. The other buffer components, including MgCl2 (Catalog Number M1028), Bis-Tris (Catalog Number B7535), DTT (Catalog Number D9779) and Chaps (Catalog Number C3023) were purchased from Sigma-Aldrich.
Biological Assay Method I:
A fluorescent polarization assay was used to determine does response of compound inhibition on hTNNI3K ATP binding.
Solution 1: Ten (10) mL of a 5 nM 5-({[2-({[3-({4-[(5-hydroxy-2-methylphenyl)amino]-2-pyrimidinyl}amino)phenyl]carbonyl}amino)ethyl]amino}carbonyl)-2-(6-hydroxy-3-oxo-3H-xanthen-9-yl)benzoic acid solution (Solution 1) was prepared by mixing 5 μL of 1M DTT and 80 μL of 10% (w/v) Chaps and 5 μL of a 10 μM 5-({[2-({[3-({4-[(5-hydroxy-2-methylphenyl)amino]-2-pyrimidinyl}amino)phenyl]carbonyl}amino) ethyl]amino}carbonyl)-2-(6-hydroxy-3-oxo-3H-xanthen-9-yl)benzoic acid stock solution into 9910 μL buffer (20 mM Tris, 15 mM MgCl2, pH 7.5). (Stock solution: 10 μM solution of 5-({[2-({[3-({4-[(5-hydroxy-2-methylphenyl)amino]-2-pyrimidinyl}amino)phenyl]carbonyl}amino)ethyl]amino}carbonyl)-2-(6-hydroxy-3-oxo-3H-xanthen-9-yl)benzoic acid in 100% DMSO)
Solution 2 was formed by mixing 53.8 μL of 2.6 μM hTNNI3K with a 6946.2 μL aliquot of Solution 1 (the above 5-({[2-({[3-({4-[(5-hydroxy-2-methylphenyl)amino]-2-pyrimidinyl}amino)phenyl]carbonyl}amino)ethyl]amino}carbonyl)-2-(6-hydroxy-3-oxo-3H-xanthen-9-yl)benzoic acid solution) to make up a 7 mL of mixture of hTNNI3K and 5-({[2-({[3-({4-[(5-hydroxy-2-methylphenyl)amino]-2-pyrimidinyl}amino)phenyl]carbonyl}amino)ethyl]amino}carbonyl)-2-(6-hydroxy-3-oxo-3H-xanthen-9-yl)benzoic acid (Solution 2).
Fifty (50) nL of inhibitors in DMSO (or DMSO controls) were stamped into a 384-well low volume Greiner black plate, followed by addition of 5 μL of Solution 1 to column 18 and 5 μL Solution 2 to columns 1-17 and 19-24 of the plate. The plate was then spun at 500 rpm for 30 seconds and incubated at room temperature for 60 minutes. After that, the fluorescent polarization was measured on Analyst (ex/em: 485/530 nm, Dichroic: 505). For dose response experiments, normalized data were fit by ABASE/XC50 and pXC50=(log((b−y)/(y−a)))/d−log(x), where x is the compound concentration and y is the % activity at specified compound concentration, a is the minimum % activity, b is the maximum % activity, and d is the Hill slope.
The pXC50s are averaged to determine a mean value, for a minimum of 2 experiments.

## CNS(=O)(=O)c1ccc(OCC(F)(F)F)c(Nc2ncnc3cc(OC)cc(OCCOC)c23)c1 [Example 60, N-methyl-3-[(7-(methyIoxy)-5-{[2-(methyloxy)ethyl]oxy}-4-quinazolinyl)amino]-4-[(2,2,2-trifluoroethyl)oxy]benzene-sulfonamide hydrochloride]
  IC50: 10 to 100 nM

## CNS(=O)(=O)c1ccc(OCC(F)(F)F)c(Nc2ncnc3cc(OC)cc(OC4CCOCC4)c23)c1 [Example 61, N-methyl-3-{[7-(methyloxy)-5-(tetrahydro-2H-pyran-4-yloxy)-4-quinazolinyl]amino}-4-[(2,2,2-trifluoroethyl)oxy] benzenesulfonamide]
  IC50: 10 to 100 nM

## CNS(=O)(=O)c1ccc(OC(C)C(F)(F)F)c(Nc2ncnc3cc(OC)c(OC)c(OC)c23)c1 (stereo not drawn) [Example 62, N-methyl-4-[(2,2,2-trifluoro-1-methylethyl)oxy]-3-{[5,6,7-tris(methyloxy)-4-quinazolinyl]amino}benzene sulfonamide trifluoroacetate]
  IC50: 1 to 10 nM

## CCOc1cc(OC)cc2ncnc(Nc3cc(S(=O)(=O)NC)ccc3OC(F)(F)F)c12 [Example 64, 3-{[5-(ethyloxy)-7-(methyloxy)-4-quinazolinyl]amino}-N-methyl-4-[(trifluoromethyl)oxy] benzenesulfonamide]
  IC50: 10 to 100 nM

## CNS(=O)(=O)c1ccc(OC(F)(F)F)c(Nc2ncnc3cc(OC)cc(OC(C)C)c23)c1 [Example 65, N-methyl-3-{[5-[(1-methylethyl)oxy]-7-(methyloxy)-4-quinazolinyl]amino}-4-[(trifluoromethyl)oxy] benzenesulfonamide]
  IC50: 10 to 100 nM

## CCOc1cc(OC)cc2ncnc(Nc3cc(S(=O)(=O)NC)ccc3OC(C)C(F)(F)F)c12 (stereo not drawn) [Example 66, 3-{[5-(ethyloxy)-7-(methyloxy)-4-quinazolinyl]amino}-N-methyl-4-[(2,2,2-trifluoro-1-methylethyl)oxy] benzenesulfonamide]
  IC50: 1 to 10 nM

## CNS(=O)(=O)c1ccc(OC(C)C(F)(F)F)c(Nc2ncnc3cc(OC)cc(OC(C)C)c23)c1 (stereo not drawn) [Example 67, N-methyl-3-{[5-[(1-methylethyl)oxy]-7-(methyloxy)-4-quinazolinyl]amino}-4-[(2,2,2-trifluoro-1-methylethyl)oxy] benzenesulfonamide]
  IC50: 10 to 100 nM

## CNS(=O)(=O)c1ccc(S(C)(=O)=O)c(Nc2ncnc3cc(OC)c(OC)cc23)c1 [Example 68, 3-{[6,7-bis(methyloxy)-4-quinazolinyl]amino}-N-methyl-4-(methylsulfonyl) benzenesulfonamide trifluoroacetate]
  IC50: 1 to 10 nM and ~3.98 nM

## CNS(=O)(=O)c1ccc(OC(C)C(F)(F)F)c(Nc2ncnc3cc(OC)c(OC)cc23)c1 (stereo not drawn) [Example 69, 3-{[6,7-bis(methyloxy)-4-quinazolinyl]amino}-N-methyl-4-[(2,2,2-trifluoro-1-methylethyl)oxy] benzenesulfonamide]
  IC50: 10 to 100 nM

## CNS(=O)(=O)c1ccc(OCC(F)(F)F)c(Nc2ncnc3cc(OC)c(I)cc23)c1 [Example 70, 3-{[6-iodo-7-(methyloxy)-4-quinazolinyl]amino}-N-methyl-4-[(2,2,2-trifluoroethyl)oxy] benzenesulfonamide]
  IC50: 10 to 100 nM

## CCOc1cc2ncnc(Nc3cc(S(=O)(=O)NC)ccc3OCC(F)(F)F)c2cc1OCC [Example 71, 3-{[6,7-bis(ethyloxy)-4-quinazolinyl]amino}-N-methyl-4-[(2,2,2-trifluoroethyl)oxy] benzenesulfonamide]
  IC50: 1 to 10 nM

## CNS(=O)(=O)c1ccc(N(C)C)c(Nc2ncnc3cc(OCCCN4CCOCC4)ccc23)c1 [Example 73, 4-(dimethylamino)-N-methyl-3-[(7-{[3-(4-morpholinyl)propyl]oxy}-4-quinazolinyl)amino]benzenesulfonamide hydrochloride]
  IC50: 1 to 10 nM

## CNS(=O)(=O)c1ccc(OCC(F)(F)F)c(Nc2ncnc3cc(OCCCN4CCOCC4)ccc23)c1 [Example 74, N-methyl-3-[(7-{[3-(4-morpholinyl)propyl]oxy}-4-quinazolinyl)amino]-4-[(2,2,2-trifluoroethyl)oxy] benzenesulfonamide trifluoroacetate]
  IC50: 10 to 100 nM

## CNS(=O)(=O)c1ccc(OCC(F)(F)F)c(Nc2ncnc3cc(OCCCOC)ccc23)c1 [Example 75, N-methyl-3-[(7-{[3-(methyloxy)propyl]oxy}-4-quinazolinyl)amino]-4-[(2,2,2-trifluoroethyl)oxy]benzenesulfonamide]
  IC50: 10 to 100 nM

## CNS(=O)(=O)c1ccc(N(C)C)c(Nc2ncnc3cc(OCCCOC)ccc23)c1 [Example 76, 4-(dimethylamino)-N-methyl-3-[(7-{[3-(methyloxy)propyl]oxy}-4-quinazolinyl)amino] benzenesulfonamide]
  IC50: 1 to 10 nM

## CNS(=O)(=O)c1ccc(S(C)(=O)=O)c(Nc2ncnc3cc(OC)cc(OC)c23)c1 [Example 77, 3-{[5,7-bis(methyloxy)-4-quinazolinyl]amino}-N-methyl-4-(methylsulfonyl)benzenesulfonamide trifluoroacetate]
  IC50: 10 to 100 nM

## CCOc1cc2ncnc(Nc3cc(S(=O)(=O)NC)ccc3OCC(F)(F)F)c2cc1OC [Example 80, 3-(7-ethoxy-6-methoxy-quinazolin-4-ylamino)-N-methyl-4-(2,2,2-trifluoro-ethoxy)-benzenesulfonamide trifluoroacetate]
  IC50: 10 to 100 nM

## CNS(=O)(=O)c1ccc(OCC(F)(F)F)c(Nc2ncnc3cc(OCCOC)c(OC)cc23)c1 [Example 81, 3-[6-methoxy-7-(2-methoxy-ethoxy)-quinazolin-4-ylamino]-N-methyl-4-(2,2,2-trifluoro-ethoxy)-benzenesulfonamide trifluoroacetate]
  IC50: 10 to 100 nM

## CNS(=O)(=O)c1ccc(N(C)C)c(Nc2ncnc3ccc(N)cc23)c1 [Example 84, 3-((6-aminoquinazolin-4-yl)amino)-4-(dimethylamino)-N-methylbenzenesulfonamide]
  IC50: 10 to 100 nM

## CNS(=O)(=O)c1ccc(N(C)C)c(Nc2ncnc3cc(N)ccc23)c1 [Example 85, 3-((7-aminoquinazolin-4-yl)amino)-4-(dimethylamino)-N-methylbenzenesulfonamide]
  IC50: 10 to 100 nM

## CNS(=O)(=O)c1ccc(N(C)C)c(Nc2ncnc3ccc(N(C)C)cc23)c1 [Example 86, 4-(dimethylamino)-3-((6-(dimethylamino)quinazolin-4-yl)amino)-N-methylbenzenesulfonamide bis(trifluoroacetate)]
  IC50: 10 to 100 nM
